Where two headings read alike, the source gives them in different places.
Key:
washed human platelets = assay: Human platelet aggregation assay (thrombin-induced); assay type: cell-based
How it was run: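 Washed platelets (2 × 10^8/mL) from citrated blood of healthy volunteers, pretreated 30 min at 37 °C with compound or DMSO vehicle, then activated with 0.03 U/mL thrombin. Aggregation traces recorded by aggregometry; P-selectin (CD62P) exposure measured by flow cytometry.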

[1] = target: T1, CIB1 and αIIb interaction (CIB1-GST : F-αIIb peptide) (Homo sapiens, UniProt Q99828); assay: FP assay, 1536-well qHTS format (primary and confirmatory screen); assay type: binding
T1 construct: made in house; host or cells: BL-21 plus RIL cells (E. coli)
T1 sequence (Q99828 1-191): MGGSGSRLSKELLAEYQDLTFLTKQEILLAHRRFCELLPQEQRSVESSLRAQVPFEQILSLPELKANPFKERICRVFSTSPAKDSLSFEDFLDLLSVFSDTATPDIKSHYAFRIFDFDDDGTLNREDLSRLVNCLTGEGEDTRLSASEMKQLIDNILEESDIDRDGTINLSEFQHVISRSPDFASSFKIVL

[2] = target: T2, CIB1 and αIIb interaction (GST-CIB1 : F-αIIb peptide) (Homo sapiens, UniProt Q99828); assay: FP assay, 384-well format (screen); assay type: binding; parameters: 384-well SCREEN Efficacy (%): concentration or dose not given beside the values
T2 construct: made in house; host or cells: BL-21 plus RIL cells (E. coli)
T2 sequence (Q99828 1-191): T1 sequence (Q99828 1-191)

CIB1 and αIIb peptide = target: T3, CIB1 and αIIb peptide (Homo sapiens, UniProt Q99828); assay: Intrinsic tryptophan fluorescence (ITF) assay
T3 sequence (Q99828 1-191): T1 sequence (Q99828 1-191)

[3] = test system: P-selectin (CD62P) exposure on human platelets; assay: Thrombin-induced P-selectin (CD62P) exposure, flow cytometry; assay type: cell-based; details: various doses
Protocol: […]. These findings indicate that through the utilization of this FP assay, we successfully identified inhibitors of platelet function, which may warrant further assessment for their potential as antiplatelet agents.
Figure 6 Effect of compounds on human platelet activation. Representative platelet aggregation tracings of washed human platelet suspensions pretreated for 30 min at 37 °C with vehicle (DMSO) or compounds at indicated concentrations followed by activation with thrombin (0.03–0.1 U/mL). Panel (A): NCGC00071855. Panel (B–D): NCGC00351170. Panel (E): CD62P exposure was in the presence of NCGC00351170. Data represents mean ± SEM, n = 4 individual experiments; ns = non significant *P < 0.05, ***P < 0.001, ****P < 0.0001.
Whole blood was drawn by venipuncture from healthy adult volunteers (of both gender and race) with informed consent. Approval was obtained from the institutional review boards of Thomas Jefferson University, according to the Declaration of Helsinki. Blood was collected in acidified citrate dextrose as an anticoagulant. Platelet-rich plasma (PRP) and washed platelets were prepared, as previously described.[44] Platelet aggregation was performed using washed platelet suspensions containing 2 × 10^8 platelets/mL using a Chrono-Log Lumi-Aggregometer (Chrono-Log), as described previously.[11] Aggregation traces were recorded by using Aggrolink software (Chrono-Log). […]

[4] = In vitro ADME: RLM stability; details: rat liver microsomes; read-out: Rat Liver Microsome Stability (t1/2)
[5] = target: T4, GST-CIB1 : F-scrambled peptide (Homo sapiens, UniProt Q99828); assay: FP scrambled-peptide counter screen, 1536-well format; assay type: binding; details: scrambled-peptide counterscreen
T4 construct: made in house; host or cells: BL-21 plus RIL cells (E. coli)
T4 sequence (Q99828 1-191): T1 sequence (Q99828 1-191)

CIB1-(His)6 = target: T5, CIB1-(His)6 (Homo sapiens, UniProt Q99828); assay: Microscale thermophoresis (MST) protein and small-molecule binding; details: MST; fluorescently labeled CIB1-(His)6 50 nM; read-out: equilibrium dissociation constant (Kd)
T5 construct: made in house
T5 sequence (Q99828 1-191): T1 sequence (Q99828 1-191)
Protocol: Determining a direct measurement of a molecule’s binding interaction with its target is a vital parameter for characterizing a chemical probe. We employed microscale thermophoresis (MST) for this purpose, leveraging its sensitivity and capacity to deliver quantitative data on the binding interaction.[35] […] We began by testing increasing amounts of the compound(s) and incubating them with the fluorescently labeled CIB1-(His)6, followed by the detection of the MST traces on the NT automated instrument (for more details see Materials and Methods Section). […] We were able to rule out compound interference with the histidine tag on CIB1 and/or the fluorophore used for the MST assay by testing the compounds with a fluorescently labeled hexa-histidine peptide (Figure S8B).
The binding affinity of the compounds to the CIB1-(His)6 protein was evaluated using microscale thermophoresis (MST). The recombinant protein was labeled with a fluorophore using Monolith His-tag labeling RED-tris-NTA second Generation kit (Nanotemper Technologies, Munich, Germany) following the manufacturer’s protocol. Compounds were titrated in a 2-fold dilution series (16 points, final concentration range of 6.1 nM to 200 μM) and incubated with the same volume of 50 nM (final concentration; 25 nM RED-tris-NTA) labeled recombinant protein for 30 min at RT (20 μL final assay volume). […] The dissociation constant (Kd) values were calculated by fitting the thermophoresis signal at 20 s of the thermograph using the MO Affinity Analysis software (Nanotemper Technologies, Munich, Germany) and confirmed using GraphPad Prism.

[6] = target: T4, GST-CIB1 : F-scrambled peptide; assay: FP scrambled-peptide counter screen, 384-well format; assay type: binding; details: F-scrambled peptide

For COc1ccccc1C(=O)c1no[n+]([O-])c1C(=O)c1ccccc1OC.O=C(O)C(F)(F)F [NCGC00351170-01], the “Platelet Aggregation Result” value (washed human platelets; 10 μM compound) was “Active”, the inhibition at 10 µM (washed human platelets; Homo sapiens, Platelet, single concentration of 10 μM (n = 3), thrombin) was 94% and the “lowest concentration required to achieve >95% inhibition of platelet aggregation” value (washed human platelets; dose response, thrombin) was 2 µM. The “Thrombin Assay 10 µM (%)” value (washed human platelets; platelet aggregation inhibition at 10 µM) was 94%, the “CONFIRMATORY SCREEN Confirm?” value ([1]; confirmatory screen, YES/NO call) was “YES” and the “CONFIRMATORY SCREEN Curve Class” value ([1]; confirmatory screen, qHTS curve class, negative sign = inhibitory curve) was -1.2. For the same molecule, the “CONFIRMATORY SCREEN Efficacy (%)” value ([1]; confirmatory screen, negative = inhibition) was -45%, the IC50 ([1]; confirmatory screen, read-out: CONFIRMATORY SCREEN IC50) was 5.6 µM and the “Efficacy (%)” value ([1]; qHTS FP screen hits, Table S2, negative = inhibition) was -37%. For the same molecule, the “Curve Class” value ([1]; qHTS FP screen hits, Table S2, one class per curve where COUNT > 1, negative sign = inhibitory curve) was -1.2, the IC50 ([1]; qHTS FP screen hits, Table S2, read-out: IC50) was 5 µM and the IC50 ([2]; 384-well FP assay, Table 1, read-out: FP assay IC50) was 4.19 µM. For the same molecule, the “384-well SCREEN Efficacy (%)” value ([2]; F-αIIb peptide) was 57%, the “384-well SCREEN Confirm?” value ([2]; F-αIIb peptide, YES/NO) was “YES” and the IC50 ([2]; F-αIIb peptide, read-out: 384-well SCREEN IC50) was 7.9 µM. For the same molecule, the IC50 ([2]; quoted in text for comparison with MST EC50, read-out: potency in the 384-well FP assays) was roughly 4 µM, the “Confirm and Selective?” value ([2]; selective toward αIIb: negative curve class and/or IC50 ratio of >3-fold and/or >2-fold efficacy vs scrambled peptide) was “Inconclusive” and the IC50 (CIB1 and αIIb peptide) was 15.6 µM. For the same molecule, the “P-selectin (CD62P) exposure” value [3] was “dose-dependent inhibition of platelet activation”, the half-life [4] was 1.52 min and the “COUNTERSCREEN Efficacy (%)” value [5] was -14%. The “COUNTERSCREEN Confirm?” value ([5]; YES/NO call) was “YES”, the “COUNTERSCREEN Curve Class” value ([5]; qHTS curve class) was 4 and the Kd (CIB1-(His)6) was 2.9 µM. For the same molecule, the “384-well COUNTERSCREEN Efficacy (%)” value [6] was 34%, the “384-well COUNTERSCREEN Confirm?” value ([6]; *: Curve in opposite direction) was “Inconclusive” and the IC50 ([6]; read-out: 384-well COUNTERSCREEN IC50) was 8.9 µM.

Source: publication PMC11249646, “Small-Molecule Disruptors of the Interaction between Calcium- and Integrin-Binding Protein 1 and Integrin αIIbβ3 as Novel Antiplatelet Agents” (ACS Pharmacology & Translational Science, 2024)
